≈ marks a conversion by molar mass, not a printed value.
Tests used:
Type in all cases: cell-based
[1] = tested on: Staphylococcus aureus (ATCC25923); assay: Microtitre plate assay, IC90 determination, STA 25923; conditions: 90% inhibitory concentration for bacterial growth, 37° C., resazurin fluorescence
Description: (§1) The bacteria used in this study were grown overnight in flasks containing 100 ml Mueller-Hinton Broth (Becton Dickinson—cat. no. 275730) in sterile de-ionized water, with shaking, at 37° C. Stocks (0.5 ml/tube) were stored at −70° C. until use. Bacteria titrations were performed in microtiter plates to detect the TCID50, in which the TCID50 represents the dilution that gives rise to bacterial growth in 50% of inoculated cultures.
(§2) In general, an inoculum level of approximately 100 TCID50 was used for susceptibility testing.
(§3) Flat-bottom, sterile 96-well plastic microtiter plates were filled with 180 μl of sterile deionized water, supplemented with 0.25% BSA. Subsequently, stock solutions (7.8× final test concentration) of compounds were added in 45 μl volumes in column 2. Serial five-fold dilutions (45 μl in 180 μl) were made directly in the microtiter plates from column 2 to reach column 11. Untreated control samples with (column 1) and without (column 12) inoculum were included in each microtiter plate. Depending on the bacteria type, approximately 10 to 60 CFU per well of bacteria inoculum (100 TCID50), in a volume of 100 μl in 2.8× Mueller-Hinton broth medium, was added to the rows A to H, except column 12. The same volume of broth medium without inoculum was added to column 12 in row A to H. The cultures were incubated at 37° C. for 24 hours under a normal atmosphere (incubator with open air valve and continuous ventilation). At the end of incubation, one day after inoculation, the bacterial growth was quantitated fluorometrically. Therefore resazurin (0.6 mg/ml) was added in a volume of 20 μl to all wells 3 hours after inoculation, and the plates were re-incubated overnight. A change in colour from blue to pink indicated the growth of bacteria. The fluorescence was read in a computer-controlled fluorometer (Cytofluor Biosearch) at an excitation wavelength of 530 nm and an emission wavelength of 590 nm. The % growth inhibition achieved by the compounds was calculated according to standard methods. The IC90 (expressed in μg/ml) was defined as the 90% inhibitory concentration for bacterial growth.
(§4) BSU 3639 means Bacillus subtilis (ATCC43639); ECO 25922 means Escherichia coli (ATCC25922); EFA 14506 means Enterococcus faecalis (ATCC14506); EFA 29212 means Enterococcus faecalis (ATCC29212); LMO 49594 means Listeria monocytogenes (ATCC49594); PAE 27853 means Pseudomonas aeruginosa (ATCC27853); SMU 33402 means Streptococcus mutans (ATCC33402); SPN 6305 means Streptococcus pneumoniae (ATCC6305); SPY 8668 means Streptococcus pyogens (ATCC8668); STA 43300 means Staphylococcus aureus (ATCC43300); STA 25923 means Staphylococcus aureus (ATCC25923); STA 29213 means Staphylococcus aureus (ATCC29213); STA RMETH means methicilline resistant Staphylococcus aureus (MRSA) (a clinical isolate from the University of Antwerp). ATCC means American type tissue culture.

[2] = tested on: Bacillus subtilis (ATCC43639); assay: Microtitre plate assay, IC90 determination, BSU 43639; conditions: 90% inhibitory concentration for bacterial growth, 37° C., resazurin fluorescence; for IC90 (μg/ml) BSU 43639: 24 hours; for IC90: Bacillus subtilis, ATCC43639, 24 h, read-out: IC90 (μg/ml) BSU 43639
Description: as §1, §2, §3, §4

[3] = tested on: Enterococcus faecalis (ATCC29212); assay: Microtitre plate assay, IC90 determination, EFA 29212; conditions: 90% inhibitory concentration for bacterial growth, 37° C., resazurin fluorescence; for IC90 (μg/ml) EFA 29212: 24 hours; for IC90: Enterococcus faecalis, ATCC29212, 24 h, read-out: IC90 (μg/ml) EFA 29212
Description: as §1, §2, §3, §4

[4] = tested on: Streptococcus pneumoniae (ATCC6305); assay: Microtitre plate assay, IC90 determination, SPN 6305; conditions: 90% inhibitory concentration for bacterial growth, 37° C., resazurin fluorescence; for IC90 (μg/ml) SPN 6305: 24 hours; for IC90: Streptococcus pneumoniae, ATCC6305, 24 h, read-out: IC90 (μg/ml) SPN 6305
Description: as §1, §2, §3, §4

[5] = tested on: Listeria monocytogenes (ATCC49594); assay: Microtitre plate assay, IC90 determination, LMO 49594; conditions: 90% inhibitory concentration for bacterial growth, 37° C., resazurin fluorescence; for IC90 (μg/ml) LMO 49594: 24 hours; for IC90: Listeria monocytogenes, ATCC49594, 24 h, read-out: IC90 (μg/ml) LMO 49594
Description: as §1, §2, §3, §4

[6] = tested on: Pseudomonas aeruginosa (ATCC27853); assay: Microtitre plate assay, IC90 determination, PAE 27853; conditions: 90% inhibitory concentration for bacterial growth, 37° C., resazurin fluorescence; for IC90: Pseudomonas aeruginosa, ATCC27853, 24 h, read-out: IC90 (μg/ml) PAE 27853
Description: as §1, §2, §3, §4

[7] = tested on: Staphylococcus aureus (ATCC43300); assay: Microtitre plate assay, IC90 determination, STA 43300; conditions: Staphylococcus aureus, ATCC43300, 24 h, 90% inhibitory concentration for bacterial growth, 37° C., resazurin fluorescence, read-out: IC90 (μg/ml) STA 43300
Description: as §1, §2, §3, §4

[8] = tested on: Streptococcus mutans (ATCC33402); assay: Microtitre plate assay, IC90 determination, SMU 33402; conditions: 90% inhibitory concentration for bacterial growth, 37° C., resazurin fluorescence; for IC90 (μg/ml) SMU 33402: 24 hours; for IC90: Streptococcus mutans, ATCC33402, 24 h, read-out: IC90 (μg/ml) SMU 33402
Description: as §1, §2, §3, §4

[9] = tested on: Streptococcus pyogens (ATCC8668); assay: Microtitre plate assay, IC90 determination, SPY 8668; conditions: 90% inhibitory concentration for bacterial growth, 37° C., resazurin fluorescence; for IC90 (μg/ml) SPY 8668: 24 hours; for IC90: Streptococcus, ATCC8668, 24 h, read-out: IC90 (μg/ml) SPY 8668
Description: as §1, §2, §3, §4

| IC90 (μg/ml) EFA 29212 [3] [µg/mL] | IC90 (μg/ml) SPN 6305 [4] [µg/mL] | IC90 (μg/ml) LMO 49594 [5] [µg/mL] | IC90 [6] [µg/mL] | IC90 [7] [µg/mL] | IC90 [3] [µg/mL] | IC90 [5] [µg/mL] | IC90 [8] [µg/mL] | Structure (SMILES) | other results |
| --- | --- | --- | --- | --- | --- | --- | --- | --- | --- |
|  |  |  |  |  |  |  |  | CCNCCC(O)(c1ccc(F)cc1F)C(c1ccccc1)c1cc2cc(Br)ccc2nc1OC (racemic) [B] | IC90 (μg/ml) STA 25923 ([1]; 24 hours): 8.6 µg/mL (≈ 15.9 µM) |
| 25.0 (≈ 44.6 µM) | 5.6 (≈ 9.99 µM) | 25.0 (≈ 44.6 µM) |  |  |  |  |  | COc1nc2ccc(Br)cc2cc1C(c1ccccc1)C(O)(CCN1CCN(C)CC1)c1ccccc1 (racemic) [Compound 51] | IC90 (μg/ml) BSU 43639 [2]: 28.1 µg/mL (≈ 50.1 µM) |
|  | 5.7 (≈ 11.3 µM) |  | 10.1 (≈ 20 µM) | 12.7 (≈ 25.1 µM) | 11.3 (≈ 22.4 µM) | 7.1 (≈ 14 µM) |  | COc1nc2ccc(Br)cc2cc1C(c1ccccc1)C(O)(CCN(C)C)c1ccccc1 (single isomer, unassigned) [E] | IC90 [2]: 12.7 µg/mL (≈ 25.1 µM); IC90 (μg/ml) SMU 33402 [8]: 10.1 µg/mL (≈ 20 µM); IC90 (μg/ml) SPY 8668 [9]: 5.1 µg/mL (≈ 10.1 µM) |
|  |  |  | 11.6 (≈ 22.3 µM) |  | 11.6 (≈ 22.3 µM) | 11.6 (≈ 22.3 µM) |  | CCOc1nc2ccc(Br)cc2cc1C(c1ccccc1)C(O)(CCN(C)C)c1ccccc1 (stereo not drawn) [Compound 6] | IC90 [4]: 13 µg/mL (≈ 25 µM); IC90 (μg/ml) SMU 33402 [8]: 4.6 µg/mL (≈ 8.85 µM); IC90 [9]: 4.6 µg/mL (≈ 8.85 µM) |
|  |  |  | 13.6 (≈ 25.2 µM) |  |  |  |  | COc1nc2ccc(Br)cc2cc1C(c1ccccc1)C(O)(CCN(C)C)c1ccc(Cl)cc1 (stereo not drawn) [Compound 16] |  |
|  | 0.7 (≈ 1.31 µM) |  |  |  | 13.3 (≈ 24.9 µM) | 13.3 (≈ 24.9 µM) |  | CCN(CC)CCC(O)(c1ccccc1)C(c1ccccc1)c1cc2cc(Br)ccc2nc1OC (stereo not drawn) [Compound 18] |  |
|  | 12.8 (≈ 25 µM) |  |  | 12.8 (≈ 25 µM) | 11.5 (≈ 22.5 µM) | 4.6 (≈ 8.99 µM) | 11.5 (≈ 22.5 µM) | COc1nc2ccc(Br)cc2cc1C(c1ccccc1)C(O)(CCN(C)C)c1cccs1 (stereo not drawn) [Compound 21] |  |
|  | 12.8 (≈ 25 µM) |  |  | 12.8 (≈ 25 µM) | 11.5 (≈ 22.5 µM) | 11.5 (≈ 22.5 µM) | 11.5 (≈ 22.5 µM) | COc1nc2ccc(Br)cc2cc1C(c1ccccc1)C(O)(CCN(C)C)c1ccsc1 (stereo not drawn) [Compound 25] | IC90 [9]: 4.1 µg/mL (≈ 8.02 µM) |
|  | 5.6 (≈ 11.1 µM) |  | 2 (≈ 3.98 µM) | 11.3 (≈ 22.5 µM) | 4.5 (≈ 8.95 µM) | 4.5 (≈ 8.95 µM) | 11.3 (≈ 22.5 µM) | COc1nc2ccc(-c3ccccc3)cc2cc1C(c1ccccc1)C(O)(CCN(C)C)c1ccccc1 (stereo not drawn) [Compound 26] | IC90 [2]: 10 µg/mL (≈ 19.9 µM); IC90 [9]: 2.5 µg/mL (≈ 4.97 µM); IC90 ([1]; Staphylococcus aureus, ATCC25923, 24 h, read-out: IC90 (μg/ml) STA 25923): 8.9 µg/mL (≈ 17.7 µM) |
|  | 12.6 (≈ 25.1 µM) | 8.9 (≈ 17.7 µM) |  |  |  |  |  | COc1nc2ccc(-c3ccccc3)cc2cc1C(c1ccccc1)C(O)(CCN(C)C)c1ccccc1 (stereo not drawn) [Compound 27] | IC90 (μg/ml) BSU 43639 [2]: 10.0 µg/mL (≈ 19.9 µM) |
| 10.3 (≈ 22.3 µM) | 5.2 (≈ 11.3 µM) | 10.3 (≈ 22.3 µM) |  |  |  |  |  | COc1nc2ccc(Cl)cc2cc1C(c1ccccc1)C(O)(CCN(C)C)c1ccccc1 (stereo not drawn) [Compound 30] | IC90 (μg/ml) PAE 27853 ([6]; 24 hours): 9.2 µg/mL (≈ 20 µM); IC90 (μg/ml) SMU 33402 [8]: 10.3 µg/mL (≈ 22.3 µM); IC90 (μg/ml) SPY 8668 [9]: 10.3 µg/mL (≈ 22.3 µM) |
| 4.6 (≈ 9.98 µM) |  | 4.1 (≈ 8.89 µM) | 10.3 (≈ 22.3 µM) | 11.6 (≈ 25.2 µM) |  |  | 10.3 (≈ 22.3 µM) | COc1nc2ccc(Cl)cc2cc1C(c1ccccc1)C(O)(CCN(C)C)c1ccccc1 (stereo not drawn) [Compound 31] | IC90 [2]: 10.3 µg/mL (≈ 22.3 µM); IC90 [4]: 5.2 µg/mL (≈ 11.3 µM); IC90 (μg/ml) SPY 8668 [9]: 1.8 µg/mL (≈ 3.9 µM) |

| Structure (SMILES) | IC90 (μg/ml) EFA 29212 [3] [µg/mL] | IC90 (μg/ml) SPN 6305 [4] [µg/mL] | IC90 (μg/ml) LMO 49594 [5] [µg/mL] | IC90 [6] [µg/mL] | IC90 [7] [µg/mL] | IC90 [3] [µg/mL] | IC90 [5] [µg/mL] | IC90 [8] [µg/mL] | other results |
| --- | --- | --- | --- | --- | --- | --- | --- | --- | --- |
| COc1nc2ccc(Br)cc2cc1C(c1ccccc1)C(O)(CCN1CCN(C)CC1)c1ccc2ccccc2c1 (racemic) [Compound 136] | 10.6 (≈ 17.4 µM) |  | 10.6 (≈ 17.4 µM) |  |  |  |  |  | IC90 (μg/ml) BSU 43639 [2]: 10.6 µg/mL (≈ 17.4 µM) |

From patent US7709498B2, “Quinoline derivatives as antibacterial agents” (Janssen Pharmaceutica N.V., priority 2005, dated 2010)
